Test results from US8192962B2, “Processes for detecting toxic substances” (Daikin Industries, Ltd., priority 2001, dated 2012).

Tested on: Metabolism protein genes
Experiment: DNA chip mRNA expression in yeast, metabolism protein genes (Table 7)
Assay type: cell-based, Saccharomyces cerevisiae S288C
Method in brief: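 Measured as treated-to-untreated fluorescence ratio on a full-genome yeast DNA chip. Cells (S288C, YPD, 25° C.) were exposed in log phase for two hours to one chemical, dosed to curb growth without killing.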

SMILES: Oc1cc(Cl)c(Cl)cc1Cl [(6), 2,4,5-trichlorophenol]
- The level of expressed mRNA in the presence of chemical substance/The level of expressed mRNA in the absence of chemical substance (yeast gene YKL035W): 1.2
- level of expressed mRNA in the presence/in the absence of chemical substance (yeast gene YKL060C): 1.3
- The level of expressed mRNA in the presence of chemical substance/The level of expressed mRNA in the absence of chemical substance (yeast gene YKL091C): 2.2
- The level of expressed mRNA in the presence of chemical substance/The level of expressed mRNA in the absence of chemical substance (yeast gene YKL104C): 0.9
- level of expressed mRNA in the presence/in the absence of chemical substance (yeast gene YKL148C): 0.5
- The level of expressed mRNA in the presence of chemical substance/The level of expressed mRNA in the absence of chemical substance (yeast gene YKL152C): 1.6
- level of expressed mRNA in the presence/in the absence of chemical substance (yeast gene YKL157W): 1.5
- The level of expressed mRNA in the presence of chemical substance/The level of expressed mRNA in the absence of chemical substance (yeast gene YKL213C): 1.0
- The level of expressed mRNA in the presence of chemical substance/The level of expressed mRNA in the absence of chemical substance (yeast gene YKL215C): 2.1
- The level of expressed mRNA in the presence of chemical substance/The level of expressed mRNA in the absence of chemical substance (yeast gene YKL218C): 3.6
- level of expressed mRNA in the presence/in the absence of chemical substance (yeast gene YKR034W): 0.9
- The level of expressed mRNA in the presence of chemical substance/The level of expressed mRNA in the absence of chemical substance (yeast gene YKR039W): 2.8
- The level of expressed mRNA in the presence of chemical substance/The level of expressed mRNA in the absence of chemical substance (yeast gene YLL058W): 1.4
- level of expressed mRNA in the presence/in the absence of chemical substance (yeast gene YLR006C): 0.9
- level of expressed mRNA in the presence/in the absence of chemical substance (yeast gene YLR044C): 1.5
- level of expressed mRNA in the presence/in the absence of chemical substance (yeast gene YLR056W): 1.2
- level of expressed mRNA in the presence/in the absence of chemical substance (yeast gene YLR058C): 0.9
- level of expressed mRNA in the presence/in the absence of chemical substance (yeast gene YLR081W): 0.9
- level of expressed mRNA in the presence/in the absence of chemical substance (yeast gene YLR089C): 1.5
- The level of expressed mRNA in the presence of chemical substance/The level of expressed mRNA in the absence of chemical substance (yeast gene YLR142W): 3.1
- The level of expressed mRNA in the presence of chemical substance/The level of expressed mRNA in the absence of chemical substance (yeast gene YLR180W): 1.2
- The level of expressed mRNA in the presence of chemical substance/The level of expressed mRNA in the absence of chemical substance (yeast gene YLR273C): 1.2
- level of expressed mRNA in the presence/in the absence of chemical substance (yeast gene YLR284C): 0.9
- The level of expressed mRNA in the presence of chemical substance/The level of expressed mRNA in the absence of chemical substance (yeast gene YLR299W): 0.9
- The level of expressed mRNA in the presence of chemical substance/The level of expressed mRNA in the absence of chemical substance (yeast gene YLR300W): 1.1
- level of expressed mRNA in the presence/in the absence of chemical substance (yeast gene YLR304C): 1.9
- The level of expressed mRNA in the presence of chemical substance/The level of expressed mRNA in the absence of chemical substance (yeast gene YLR307W): 1.2
- The level of expressed mRNA in the presence of chemical substance/The level of expressed mRNA in the absence of chemical substance (yeast gene YLR348C): 1.9
- level of expressed mRNA in the presence/in the absence of chemical substance (yeast gene YLR354C): 1.5
- level of expressed mRNA in the presence/in the absence of chemical substance (yeast gene YLR372W): 0.5
- level of expressed mRNA in the presence/in the absence of chemical substance (yeast gene YML022W): 0.8
- The level of expressed mRNA in the presence of chemical substance/The level of expressed mRNA in the absence of chemical substance (yeast gene YML054C): 1.8
- The level of expressed mRNA in the presence of chemical substance/The level of expressed mRNA in the absence of chemical substance (yeast gene YML070W): 2.2
- The level of expressed mRNA in the presence of chemical substance/The level of expressed mRNA in the absence of chemical substance (yeast gene YML100W): 2.8
- The level of expressed mRNA in the presence of chemical substance/The level of expressed mRNA in the absence of chemical substance (yeast gene YML110C): 2.6
- The level of expressed mRNA in the presence of chemical substance/The level of expressed mRNA in the absence of chemical substance (yeast gene YMR008C): 1.7
- level of expressed mRNA in the presence/in the absence of chemical substance (yeast gene YMR011W): 0.6
- level of expressed mRNA in the presence/in the absence of chemical substance (yeast gene YMR015C): 1.3
- The level of expressed mRNA in the presence of chemical substance/The level of expressed mRNA in the absence of chemical substance (yeast gene YMR020W): 1.6
- level of expressed mRNA in the presence/in the absence of chemical substance (yeast gene YMR083W): 1.8
- The level of expressed mRNA in the presence of chemical substance/The level of expressed mRNA in the absence of chemical substance (yeast gene YMR105C): 2.8
- The level of expressed mRNA in the presence of chemical substance/The level of expressed mRNA in the absence of chemical substance (yeast gene YMR189W): 1.9
- level of expressed mRNA in the presence/in the absence of chemical substance (yeast gene YMR205C): 1.2
- The level of expressed mRNA in the presence of chemical substance/The level of expressed mRNA in the absence of chemical substance (yeast gene YMR250W): 4.5
- level of expressed mRNA in the presence/in the absence of chemical substance (yeast gene YMR261C): 0.6
- The level of expressed mRNA in the presence of chemical substance/The level of expressed mRNA in the absence of chemical substance (yeast gene YMR271C): 4.2
- The level of expressed mRNA in the presence of chemical substance/The level of expressed mRNA in the absence of chemical substance (yeast gene YMR272C): 2.6
- The level of expressed mRNA in the presence of chemical substance/The level of expressed mRNA in the absence of chemical substance (yeast gene YMR296C): 0.4
- level of expressed mRNA in the presence/in the absence of chemical substance (yeast gene YMR323W): 0.4
- The level of expressed mRNA in the presence of chemical substance/The level of expressed mRNA in the absence of chemical substance (yeast gene YNL012W): 1.7
- level of expressed mRNA in the presence/in the absence of chemical substance (yeast gene YNL025C): 0.5
- The level of expressed mRNA in the presence of chemical substance/The level of expressed mRNA in the absence of chemical substance (yeast gene YNL037C): 2.8
- The level of expressed mRNA in the presence of chemical substance/The level of expressed mRNA in the absence of chemical substance (yeast gene YNL045W): 2.2
- The level of expressed mRNA in the presence of chemical substance/The level of expressed mRNA in the absence of chemical substance (yeast gene YNL104C): 0.8
- The level of expressed mRNA in the presence of chemical substance/The level of expressed mRNA in the absence of chemical substance (yeast gene YNL106C): 1.0
- The level of expressed mRNA in the presence of chemical substance/The level of expressed mRNA in the absence of chemical substance (yeast gene YNL169C): 1.4
- level of expressed mRNA in the presence/in the absence of chemical substance (yeast gene YNL192W): 0.6
- The level of expressed mRNA in the presence of chemical substance/The level of expressed mRNA in the absence of chemical substance (yeast gene YNL231C): 1.8
- The level of expressed mRNA in the presence of chemical substance/The level of expressed mRNA in the absence of chemical substance (yeast gene YNL322C): 1.1
- The level of expressed mRNA in the presence of chemical substance/The level of expressed mRNA in the absence of chemical substance (yeast gene YNL331C): 1.8
- The level of expressed mRNA in the presence of chemical substance/The level of expressed mRNA in the absence of chemical substance (yeast gene YNL332W): 1.1
- The level of expressed mRNA in the presence of chemical substance/The level of expressed mRNA in the absence of chemical substance (yeast gene YNR019W): 1.3
- The level of expressed mRNA in the presence of chemical substance/The level of expressed mRNA in the absence of chemical substance (yeast gene YNR033W): 1.6
- The level of expressed mRNA in the presence of chemical substance/The level of expressed mRNA in the absence of chemical substance (yeast gene YNR059W): 0.8
- The level of expressed mRNA in the presence of chemical substance/The level of expressed mRNA in the absence of chemical substance (yeast gene YOL058W): 0.8
- level of expressed mRNA in the presence/in the absence of chemical substance (yeast gene YOL086C): 1.7
- level of expressed mRNA in the presence/in the absence of chemical substance (yeast gene YOL108C): 0.9
- level of expressed mRNA in the presence/in the absence of chemical substance (yeast gene YOL116W): 0.7
- The level of expressed mRNA in the presence of chemical substance/The level of expressed mRNA in the absence of chemical substance (yeast gene YOL126C): 1.5
- The level of expressed mRNA in the presence of chemical substance/The level of expressed mRNA in the absence of chemical substance (yeast gene YOL143C): 3.5
- The level of expressed mRNA in the presence of chemical substance/The level of expressed mRNA in the absence of chemical substance (yeast gene YOL153C): 1.9
- level of expressed mRNA in the presence/in the absence of chemical substance (yeast gene YOL156W): 1.2
- The level of expressed mRNA in the presence of chemical substance/The level of expressed mRNA in the absence of chemical substance (yeast gene YOL165C): 1.7
- level of expressed mRNA in the presence/in the absence of chemical substance (yeast gene YOR002W): 1.1
- level of expressed mRNA in the presence/in the absence of chemical substance (yeast gene YOR085W): 0.6
- The level of expressed mRNA in the presence of chemical substance/The level of expressed mRNA in the absence of chemical substance (yeast gene YOR099W): 0.9
- level of expressed mRNA in the presence/in the absence of chemical substance (yeast gene YOR103C): 1.0
- level of expressed mRNA in the presence/in the absence of chemical substance (yeast gene YOR108W): 1.6
- level of expressed mRNA in the presence/in the absence of chemical substance (yeast gene YOR128C): 1.0
- The level of expressed mRNA in the presence of chemical substance/The level of expressed mRNA in the absence of chemical substance (yeast gene YOR130C): 1.6
- level of expressed mRNA in the presence/in the absence of chemical substance (yeast gene YOR142W): 1.6
- level of expressed mRNA in the presence/in the absence of chemical substance (yeast gene YOR176W): 0.9
- level of expressed mRNA in the presence/in the absence of chemical substance (yeast gene YOR178C): 2.7
- level of expressed mRNA in the presence/in the absence of chemical substance (yeast gene YOR251C): 0.9
- The level of expressed mRNA in the presence of chemical substance/The level of expressed mRNA in the absence of chemical substance (yeast gene YOR336W): 1.7
- The level of expressed mRNA in the presence of chemical substance/The level of expressed mRNA in the absence of chemical substance (yeast gene YOR347C): 0.9
- level of expressed mRNA in the presence/in the absence of chemical substance (yeast gene YOR348C): 0.7
- The level of expressed mRNA in the presence of chemical substance/The level of expressed mRNA in the absence of chemical substance (yeast gene YPL017C): 1.5
- level of expressed mRNA in the presence/in the absence of chemical substance (yeast gene YPL028W): 1.2
- level of expressed mRNA in the presence/in the absence of chemical substance (yeast gene YPL057C): 0.6
- level of expressed mRNA in the presence/in the absence of chemical substance (yeast gene YPL135W): 1.3
- level of expressed mRNA in the presence/in the absence of chemical substance (yeast gene YPL148C): 0.6
- level of expressed mRNA in the presence/in the absence of chemical substance (yeast gene YPR113W): 1.1
- The level of expressed mRNA in the presence of chemical substance/The level of expressed mRNA in the absence of chemical substance (yeast gene YPR160W): 4.5
- level of expressed mRNA in the presence/in the absence of chemical substance (yeast gene YPR165W): 1.8
- The level of expressed mRNA in the presence of chemical substance/The level of expressed mRNA in the absence of chemical substance (yeast gene YPR167C): 2.6
- level of expressed mRNA in the presence/in the absence of chemical substance (yeast gene YPR183W): 1.2
